{"source": "patent US10189875B2", "about": "“Anti-cancer peptide and use thereof” (ENSOL BIOSCIENCES INC., priority 2015, dated 2019)", "key": {"[1]": {"tested_on": "B16-BL6 mouse melanoma cells", "assay": "Survival rate in animal model with B16-BL6 melanoma cells", "assay_type": "in vivo, male C57BL/6J mice", "settings": "FIG. 4", "procedure": "(§1) The anticancer effect of the peptide of Example 1 was evaluated experimentally. Specifically, in order to evaluate the effect of the peptide of Example 1 on surviving individuals suffering from cancer, the survival rate was measured using an animal model with B16-BL6 mouse melanoma cells (Korean Cell Line Bank, Korea).\nB16-BL6 cells {1×10^5 cells/head} were subcutaneously injected into 7-week-old male C57BL/6J mice (Orientbio Inc., Korea). After one week, the peptide of Example 1 was intraperitoneally administered. The test group was divided into three groups according to the administration concentration; low concentration {40, ttg/head}, middle concentration {80, ttg/head}, and high concentration {120, ttg/head}. The negative control group was treated in the same manner as the test group, with the exception that the peptide of Example 1 was not administered. The administration was repeated two times a week for two weeks from the first administration day and then once a week for an additional four weeks, and the peptide was administered a total of eight times. To measure the survival rate, the survival rate for each group was observed and recorded. In the graph of FIG. 4, showing the survival rate, the x-axis represents the number of days since injection of the cancer cells, and the y-axis represents the survival rate (%). […]"}, "[2]": {"tested_on": "4T1 mouse breast cancer cells", "assay": "Survival rate in the 4T1 lung metastasis model", "assay_type": "in vivo, female BALB/c mice", "settings": "FIG. 3", "procedure": "Whether the metastasis of cancer cells was inhibited by the peptide of Example 1 was evaluated experimentally. Specifically, in order to evaluate the inhibitory effect of the peptide of Example 1 on the metastasis of cancer cells, testing was performed using a lung metastasis model with 4T1 mouse breast cancer cells (ATCC CRL-2539, USA). The peptide of Example 1 was injected into the caudal vein of the tail of female BALB/c mice (SPF, SLC/Japan). The test group was divided into three groups according to the administration concentration; low concentration [40/2 g/head], middle concentration [80/2 g/head], and high concentration 1120, ug/headl. The negative control group was treated in the same manner as the test group, with the exception that the peptide of Example 1 was not administered. […] The weight of the mouse was measured two times a week, and an autopsy was performed on the 21st day after the injection of cancer cells. The lung tissue was excised, stained with a Bouin's solution, and fixed, and then the number of metastatic tumor nodules was counted. […]\nas §1, with “prepared in the same manner as in Example 3. […]” for “with B16-BL6 mouse melanoma cells (Korean Cell Line Bank, Korea).”"}, "[3]": {"tested_on": "SNU-790 thyroid cancer cells", "assay": "Transwell invasion assay (TGF-beta1-induced invasion of cancer cells)", "assay_type": "cell-based", "settings": "invasion increased by 10 ng/ml TGF-beta1; peptide at 40 and 100 [1M; 2 days culture; FIG. 1", "procedure": "Whether the invasion of cancer cells was inhibited by the peptide of Example 1 was evaluated experimentally. Specifically, in order to evaluate the effect of the peptide of Example 1 on inhibiting the invasion of cancer cells, a Transwell invasion assay was performed. Growth factor reduced Matrigel (BD Biosciences, Franklin Lakes, N.J., USA) was diluted at 1:1 with a medium [RPMI 1640 medium (Welgene Inc., Korea)] and 70 fek thereof was added to the top chamber of the Transwell insert (Corning cat#3422, Tewksbury Mass., USA), followed by a coating process for 1 hr in a CO2 incubator at 37° C. 500 fek of a medium [RPMI 1640 medium (Welgene Inc., Korea)] containing 10% fetal bovine serum (FBS, Cellgro cat#35-015-CV, USA) was added to the bottom chamber, after which the test group was added with 10 ng/ml of TGF-betal (PromoKine, Germany). The coated top chamber was mounted to the bottom chamber, and 100 ick of RPMI 1640 medium containing 0.5% FBS with 20000 SNU-790 thyroid cancer cells (Korean Cell Line Bank) was added to the top chamber. In this way, a negative control group and two test groups were prepared. […]\nThe test groups, the control group, and the negative control group were cultured in a CO2 incubator for 2 days at 37° C. […] Four randomly selected regions were photographed and the number of cells in these regions was counted, averaged and graphed. […]"}, "[4]": {"tested_on": "4T1 mouse breast cancer cells", "assay": "Lung metastasis model with 4T1 cells, count of metastatic tumor nodules", "assay_type": "in vivo, female BALB/c mice", "settings": "FIG. 2; for number of tumor nodules (lung): caudal vein, three times a week for three weeks, autopsy on 21st day, vs negative control", "procedure": "Whether the metastasis of cancer cells was inhibited by the peptide of Example 1 was evaluated experimentally. Specifically, in order to evaluate the inhibitory effect of the peptide of Example 1 on the metastasis of cancer cells, testing was performed using a lung metastasis model with 4T1 mouse breast cancer cells (ATCC CRL-2539, USA). The peptide of Example 1 was injected into the caudal vein of the tail of female BALB/c mice (SPF, SLC/Japan). The test group was divided into three groups according to the administration concentration; low concentration [40/2 g/head], middle concentration [80/2 g/head], and high concentration 1120, ug/headl. The negative control group was treated in the same manner as the test group, with the exception that the peptide of Example 1 was not administered. On the day after first administration, 4T1 cells (1.5×10^4 cells/head) were injected into the mouse tail caudal vein. After 1 hr, the peptide of Example 1 was secondarily administered. The administration of the peptide was performed three times a week (Monday, Wednesday, and Friday) for a total of three weeks ranging from the second administration day to the final administration day. The weight of the mouse was measured two times a week, and an autopsy was performed on the 21st day after the injection of cancer cells. The lung tissue was excised, stained with a Bouin's solution, and fixed, and then the number of metastatic tumor nodules was counted. Also, a group (a normal group), treated in the same manner as the test group, was prepared as a control group, with the exception that neither the peptide of Example 1 nor 4T1 cells were added. The graph of FIG. 2 is plotted with an x-axis for each group and a y-axis for the number of tumor nodules. As such, n designates the number of individuals in each group, and P designates the significance probability."}, "[5]": {"settings": "low, middle and high concentration groups compared"}}}
{"substance": "QLHLD [Example 1]", "values": [{"measurement": "survival rate, comparison among dose groups", "setting": "[1]; [5]", "result": "highest in the test group in which the peptide was administered at the middle concentration"}, {"measurement": "survival rate", "setting": "[1]; test groups (low 40, middle 80, high 120 ttg/head), intraperitoneal, eight administrations, vs negative control", "result": "some individuals survived even after the death of the negative control group"}, {"measurement": "survival rate, comparison among dose groups", "setting": "[2]; [5]", "result": "highest in the test group in which the peptide was administered at the middle concentration"}, {"measurement": "survival rate", "setting": "[2]; middle and high concentrations, caudal vein, vs negative control", "result": "some individuals survived even after the death of the negative control group"}, {"measurement": "invasion of cancer cells (number of invading cells)", "setting": "[3]", "result": "inhibited in a concentration-dependent manner"}, {"measurement": "number of tumor nodules (lung)", "setting": "[4]; high concentration (120 ug/head)", "result": "significantly (P<0.001) reduced"}, {"measurement": "inhibitory effect of cancer metastasis, comparison among dose groups", "setting": "[4]; [5]", "result": "highest in the test group in which the peptide was administered at the middle concentration"}, {"measurement": "number of tumor nodules (lung)", "setting": "[4]; middle concentration [80/2 g/head]", "result": "significantly (P<0.001) reduced"}]}
